Measurements from patent US20060069132A1, “Azolecarboxamide herbicides” (priority 2004, published 2006).

Experiments:
woolly cupgrass = assay: Test C pre-/postemergence herbicide test; format: in vivo, Eriochloa villosa; conditions: for Cupgrass, Woolly plant response rating: 500 g ai/ha
Outline: (§1)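 Emerged plants at the 1- to 4-leaf stage (2–18 cm), or freshly planted seeds, received test chemicals in a non-phytotoxic solvent mixture with surfactant. Response was visually scored against controls after 12 to 14 days in the greenhouse, on a 0 (no effect) to 100 (complete control) scale.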

kochia = assay: Test C pre-/postemergence herbicide test; format: in vivo, Kochia scoparia; conditions: for Kochia plant response rating: 500 g ai/ha
Outline: as §1

morningglory = assay: Test C pre-/postemergence herbicide test; format: in vivo, Ipomoea coccinea; set-up: key to Plant response rating, Morningglory: 0 = no effect, 100 = complete control; conditions: for Morningglory plant response rating: 500 g ai/ha
Outline: as §1

Surinam grass = assay: Test C pre-/postemergence herbicide test; format: in vivo, Urochloa decumbens; conditions: for Surinam Grass plant response rating: 500 g ai/ha
Outline: as §1

giant foxtail = assay: Test A pre-/postemergence herbicide test; format: in vivo, Setaria faberi
Outline: (§2)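 Both application timings were run together: directed soil spray over freshly planted seeds in sandy loam, and runoff spray onto 2–10 cm seedlings. Evaluation after ~10 days in greenhouse used a 0–100 visual scale versus untreated controls.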

pigweed = assay: Test C pre-/postemergence herbicide test; format: in vivo, Amaranthus retroflexus; conditions: for Pigweed plant response rating: 500 g ai/ha
Outline: as §1

lambsquarters = assay: Test C pre-/postemergence herbicide test; format: in vivo, Chenopodium album; conditions: for Lambsquarters plant response rating: 500 g ai/ha
Outline: as §1

corn = assay: Test C pre-/postemergence herbicide test; format: in vivo, Zea mays; conditions: for Corn plant response rating: 500 g ai/ha
Outline: as §1

velvetleaf = assay: Test A pre-/postemergence herbicide test; format: in vivo, Abutilon theophrasti
Outline: as §2

soybean = assay: Test C pre-/postemergence herbicide test; format: in vivo, Glycine max; conditions: for Soybean plant response rating: 500 g ai/ha
Outline: as §1

yellow nutsedge = assay: Test C pre-/postemergence herbicide test; format: in vivo, Cyperus esculentus; conditions: for Nutsedge, Yellow plant response rating: 500 g ai/ha
Outline: as §1

goosegrass = assay: Test C pre-/postemergence herbicide test; format: in vivo, Eleusine indica; conditions: for Goosegrass plant response rating: 500 g ai/ha
Outline: as §1

[1] = 125 g ai/ha, scale 0 (no effect) to 100 (complete control), visual, 12 to 14 days, preemergence
[2] = 250 g ai/ha, scale 0 to 100 (0 no effect, 100 complete control), visual, 12 to 14 days, preemergence
[3] = Postemergence, 250 g ai/ha, scale 0 to 100, 0 no effect, 100 complete control
[4] = Preemergence, scale 0 to 100, 0 no effect, 100 complete control
[5] = postemergence, 125 g ai/ha, scale 0 to 100
[6] = Postemergence, 500 g ai/ha, 0 to 100 scale, 0 no effect, 100 complete control
[7] = Postemergence, 2000 g ai/ha, 0 to 100 scale, 0 no effect, 100 complete control
[8] = Preemergence, 2000 g ai/ha, visual rating, 0 to 100 scale (0 no effect, 100 complete control)
[9] = preemergence, 500 g ai/ha, visual injury, 0 to 100 scale (0 no effect, 100 complete control)
[10] = 62 g ai/ha, preemergence, scale 0 to 100
[11] = 250 g ai/ha, scale 0-100, preemergence

For `CCn1nc(C(C)(C)C)cc1C(=O)Nc1cccc(SC(F)(F)F)c1` [Compound 130], the “Plant response rating (0 = no effect, 100 = complete control), Cupgrass, Woolly” value (woolly cupgrass; 62 g ai/ha, preemergence) was 5, the “Plant response rating, Cupgrass, Woolly” value (woolly cupgrass; [1]) was 10 and the “Plant response rating, Cupgrass, Woolly” value (woolly cupgrass; [2]) was 40. For the same compound, the “Cupgrass, Woolly plant response rating” value (woolly cupgrass; Postemergence, scale 0 to 100) was 80, the “Plant response rating, Cupgrass, Woolly” value (woolly cupgrass; [3]) was 60 and the “Cupgrass, Woolly plant response rating” value (woolly cupgrass; [4]) was 70. The “Plant response rating, Cupgrass, Woolly” value (woolly cupgrass; [5]) was 50, the “Plant response rating (0 = no effect, 100 = complete control), Kochia” value (kochia; 62 g ai/ha, preemergence) was 0 and the “Plant response rating, Kochia” value (kochia; [1]) was 0. For the same compound, the “Kochia plant response rating” value (kochia; Postemergence, scale 0 to 100) was 85, the “Plant response rating, Kochia” value (kochia; [3]) was 70 and the “Kochia plant response rating” value (kochia; [4]) was 100. For the same compound, the “Plant response rating, Kochia” value (kochia; [5]) was 30, the “Plant response rating (0 = no effect, 100 = complete control), Morningglory” value (morningglory; 62 g ai/ha, preemergence) was 0 and the “Plant response rating, Morningglory” value (morningglory; [1]) was 0. The “Morningglory plant response rating” value (morningglory; Postemergence, scale 0 to 100) was 100, the “Plant response rating, Morningglory” value (morningglory; [3]) was 80 and the “Morningglory plant response rating” value (morningglory; [4]) was 30. For the same compound, the “Plant response rating, Morningglory” value (morningglory; [5]) was 40, the “Plant response rating (0 = no effect, 100 = complete control), Surinam Grass” value (Surinam grass; 62 g ai/ha, preemergence) was 5 and the “Plant response rating, Surinam Grass” value (Surinam grass; [1]) was 5. The “Surinam Grass plant response rating” value (Surinam grass; Postemergence, scale 0 to 100) was 60, the “Plant response rating, Surinam Grass” value (Surinam grass; [3]) was 30 and the “Surinam Grass plant response rating” value (Surinam grass; [4]) was 60. For the same compound, the “Plant response rating, Surinam Grass” value (Surinam grass; [5]) was 10, the “Foxtail, Giant plant response rating” value (giant foxtail; [6]) was 10 and the “Plant response rating, Foxtail, Giant” value (giant foxtail; [7]) was 10. For the same compound, the “Foxtail, Giant plant response rating” value (giant foxtail; Preemergence, 500 g ai/ha, visual rating, 0 to 100 scale (0 no effect, 100 complete control)) was 50, the “Foxtail, Giant plant response rating” value (giant foxtail; [8]) was 55 and the “Plant response rating (0 = no effect, 100 = complete control), Pigweed” value (pigweed; 62 g ai/ha, preemergence) was 80. The “Plant response rating, Pigweed” value (pigweed; [1]) was 90, the “Pigweed plant response rating” value (pigweed; Postemergence, scale 0 to 100) was 100 and the “Plant response rating, Pigweed” value (pigweed; [3]) was 100. The “Pigweed plant response rating” value (pigweed; [4]) was 100, the “Plant response rating, Pigweed” value (pigweed; [5]) was 100 and the “Plant response rating (0 = no effect, 100 = complete control), Lambsquarters” value (lambsquarters; 62 g ai/ha, preemergence) was 10. The “Plant response rating, Lambsquarters” value (lambsquarters; [1]) was 30, the “Lambsquarters plant response rating” value (lambsquarters; Postemergence, scale 0 to 100) was 100 and the “Plant response rating, Lambsquarters” value (lambsquarters; [3]) was 100. For the same compound, the “Lambsquarters plant response rating” value (lambsquarters; [4]) was 80, the “Plant response rating, Lambsquarters” value (lambsquarters; [5]) was 100 and the “Plant response rating (0 = no effect, 100 = complete control), Corn” value (corn; 62 g ai/ha, preemergence) was 0. For the same compound, the “Plant response rating, Corn” value (corn; [1]) was 5, the “Plant response rating, Corn” value (corn; [2]) was 5 and the “Corn plant response rating” value (corn; Postemergence, scale 0 to 100) was 50. The “Plant response rating, Corn” value (corn; [3]) was 45, the “Corn plant response rating” value (corn; [4]) was 10 and the “Plant response rating, Corn” value (corn; [5]) was 45. For the same compound, the “Velvetleaf plant response rating” value (velvetleaf; [6]) was 20, the “Plant response rating, Velvetleaf” value (velvetleaf; [7]) was 20 and the “Velvetleaf plant response rating” value (velvetleaf; [8]) was 30. For the same compound, the “Velvetleaf plant response rating” value (velvetleaf; [9]) was 20, the “Plant response rating (0 = no effect, 100 = complete control), Soybean” value (soybean; 62 g ai/ha, preemergence) was 0 and the “Plant response rating, Soybean” value (soybean; [1]) was 0. The “Soybean plant response rating” value (soybean; Postemergence, scale 0 to 100) was 70, the “Plant response rating, Soybean” value (soybean; [3]) was 40 and the “Soybean plant response rating” value (soybean; [4]) was 10. The “Plant response rating, Soybean” value (soybean; [5]) was 40, the “Plant response rating (0 = no effect, 100 = complete control), Nutsedge, Yellow” value (yellow nutsedge; 62 g ai/ha, preemergence) was 0 and the “Plant response rating, Nutsedge, Yellow” value (yellow nutsedge; [1]) was 0. For the same compound, the “Nutsedge, Yellow plant response rating” value (yellow nutsedge; Postemergence, scale 0 to 100) was 0, the “Plant response rating, Nutsedge, Yellow” value (yellow nutsedge; [3]) was 0 and the “Nutsedge, Yellow plant response rating” value (yellow nutsedge; [4]) was 0. For the same compound, the “Plant response rating, Nutsedge, Yellow” value (yellow nutsedge; [5]) was 0, the “Plant response rating (0 = no effect, 100 = complete control), Goosegrass” value (goosegrass; 62 g ai/ha, preemergence) was 10 and the “Plant response rating, Goosegrass” value (goosegrass; [1]) was 20. For the same compound, the “Goosegrass plant response rating” value (goosegrass; Postemergence, scale 0 to 100) was 60, the “Plant response rating, Goosegrass” value (goosegrass; [3]) was 60 and the “Goosegrass plant response rating” value (goosegrass; [4]) was 50. The “Plant response rating, Goosegrass” value (goosegrass; [5]) was 20.

With `CC(=NO)c1cccc(NC(=O)c2sc(C(C)(C)C)nc2C)c1` [Compound 195] the “Plant response rating, Cupgrass, Woolly” value (woolly cupgrass; [10]) was 0, the “Plant response rating, Cupgrass, Woolly” value (woolly cupgrass; [1]) was 0 and the “Plant response rating, Cupgrass, Woolly” value (woolly cupgrass; [11]) was 10. For the same compound, the “Cupgrass, Woolly plant response rating” value (woolly cupgrass; [4]) was 10, the “Plant response rating, Kochia” value (kochia; [10]) was 0 and the “Plant response rating, Kochia” value (kochia; [1]) was 0. The “Plant response rating, Kochia” value (kochia; [11]) was 10, the “Kochia plant response rating” value (kochia; [4]) was 85 and the “Plant response rating, Morningglory” value (morningglory; [10]) was 0. For the same compound, the “Plant response rating, Morningglory” value (morningglory; [1]) was 0, the “Plant response rating, Morningglory” value (morningglory; [11]) was 0 and the “Morningglory plant response rating” value (morningglory; [4]) was 0. For the same compound, the “Plant response rating, Surinam Grass” value (Surinam grass; [10]) was 0, the “Plant response rating, Surinam Grass” value (Surinam grass; [1]) was 0 and the “Plant response rating, Surinam Grass” value (Surinam grass; [11]) was 85. The “Surinam Grass plant response rating” value (Surinam grass; [4]) was 85, the “Foxtail, Giant plant response rating” value (giant foxtail; [6]) was 5 and the “Plant response rating, Foxtail, Giant” value (giant foxtail; [7]) was 0. For the same compound, the “Foxtail, Giant plant response rating” value (giant foxtail; [8]) was 45, the “Foxtail, Giant plant response rating” value (giant foxtail; [9]) was 30 and the “Plant response rating, Pigweed” value (pigweed; [10]) was 55. The “Plant response rating, Pigweed” value (pigweed; [1]) was 60, the “Plant response rating, Pigweed” value (pigweed; [11]) was 90 and the “Pigweed plant response rating” value (pigweed; [4]) was 90. The “Plant response rating, Lambsquarters” value (lambsquarters; [10]) was 0, the “Plant response rating, Lambsquarters” value (lambsquarters; [1]) was 0 and the “Plant response rating, Lambsquarters” value (lambsquarters; [11]) was 10. The “Lambsquarters plant response rating” value (lambsquarters; [4]) was 95, the “Plant response rating, Corn” value (corn; [10]) was 0 and the “Plant response rating, Corn” value (corn; [1]) was 0. The “Plant response rating, Corn” value (corn; [11]) was 0, the “Corn plant response rating” value (corn; [4]) was 0 and the “Velvetleaf plant response rating” value (velvetleaf; [6]) was 0. The “Plant response rating, Velvetleaf” value (velvetleaf; [7]) was 15, the “Velvetleaf plant response rating” value (velvetleaf; [8]) was 15 and the “Velvetleaf plant response rating” value (velvetleaf; [9]) was 0. For the same compound, the “Plant response rating, Soybean” value (soybean; [10]) was 0, the “Plant response rating, Soybean” value (soybean; [1]) was 0 and the “Plant response rating, Soybean” value (soybean; [11]) was 0. For the same compound, the “Soybean plant response rating” value (soybean; [4]) was 0, the “Plant response rating, Nutsedge, Yellow” value (yellow nutsedge; [10]) was 0 and the “Plant response rating, Nutsedge, Yellow” value (yellow nutsedge; [1]) was 0. The “Plant response rating, Nutsedge, Yellow” value (yellow nutsedge; [11]) was 0, the “Nutsedge, Yellow plant response rating” value (yellow nutsedge; [4]) was 70 and the “Plant response rating, Goosegrass” value (goosegrass; [10]) was 100. The “Plant response rating, Goosegrass” value (goosegrass; [1]) was 100, the “Plant response rating, Goosegrass” value (goosegrass; [11]) was 100 and the “Goosegrass plant response rating” value (goosegrass; [4]) was 100.
